In ChEMBL document CHEMBL5226375, “Synthesis and Comprehensive in Vivo Activity Profiling of Olean-12-en-28-ol, 3β-Pentacosanoate in Experimental Autoimmune Encephalomyelitis: A Natural Remyelinating and Anti-Inflammatory Agent” (J Nat Prod, 2023):
Active and inactive are the calls of the source. No cut-off for these calls is given here.

Assays:
Mus musculus [1] = test: Anti-inflammatory activity against MOG35-55-induced experimental autoimmune encephalomyelitis C57BL/6 mouse model assessed as fold change in TGFB1 gene expression in brain at 300 mg/kg/day, ig for 14 days starting from 12th day of immunization by RT-qPCR analysis relative to control; format: functional; settings: time 14 day
Mus musculus [2] = test: Anti-inflammatory activity against MOG35-55-induced experimental autoimmune encephalomyelitis C57BL/6 mouse model assessed as reduction in APP protein expression in brain at 300 to 600 mg/kg/day, ig for 14 days starting from 12th day of immunization by western blot analysis relative to control; format: functional; settings: dose 300-600 mg/kg/day, time 14 day
Mus musculus [3] = test: Anti-inflammatory activity against MOG35-55-induced experimental autoimmune encephalomyelitis C57BL/6 mouse model assessed as reduction in serum Th1 cytokine level by measuring reduction in TNF-alpha level at 600 mg/kg/day, ig for 14 days starting from 12th day of immunization by ELISA; format: functional, organism-based; settings: time 14.0 day
Mus musculus [4] = test: Anti-inflammatory activity against MOG35-55-induced experimental autoimmune encephalomyelitis C57BL/6 mouse model assessed as increase in brain IL-4 level at 600 mg/kg/day, ig for 14 days starting from 12th day of immunization by ELISA; format: functional, organism-based; settings: time 14.0 day
Mus musculus [5] = test: Anti-inflammatory activity against MOG35-55-induced experimental autoimmune encephalomyelitis C57BL/6 mouse model assessed as fold change in HIF1A gene expression in brain at 300 mg/kg/day, ig for 14 days starting from 12th day of immunization by RT-qPCR analysis relative to control; format: functional; settings: time 14 day
Mus musculus [6] = test: Anti-inflammatory activity against MOG35-55-induced experimental autoimmune encephalomyelitis C57BL/6 mouse model assessed as reduction in EAE symptoms by measuring reduction in clinical score at 0.15 to 0.3 mg/kg/day, ig starting from 12th day of immunization and measured on day 14 post-immunization; format: functional, organism-based; settings: dose 0.15-0.3 mg/kg/day, time 2.0 day
Mus musculus [7] = test: Anti-inflammatory activity against MOG35-55-induced experimental autoimmune encephalomyelitis C57BL/6 mouse model assessed as reduction in serum Th1 cytokine level by measuring reduction in IFNG level at 0.3 mg/kg/day, ig for 14 days starting from 12th day of immunization by ELISA; format: functional, organism-based; settings: time 14.0 day
Mus musculus [8] = test: Anti-inflammatory activity against MOG35-55-induced experimental autoimmune encephalomyelitis C57BL/6 mouse model assessed as methylation of CpG sites of IL11 gene promoter in brain at […], ig for 14 days starting from 12th day of immunization by PCR analysis (reference value: 61.1 +/-4%); format: functional; settings: time 14 day
Mus musculus [9] = test: Anti-inflammatory activity against MOG35-55-induced experimental autoimmune encephalomyelitis C57BL/6 mouse model assessed as fold change in TGFB1 gene expression in brain at 0.3 mg/kg/day, ig for 14 days starting from 12th day of immunization by RT-qPCR analysis relative to control; format: functional; settings: time 14 day
Mus musculus [10] = test: Anti-inflammatory activity against MOG35-55-induced experimental autoimmune encephalomyelitis C57BL/6 mouse model assessed as methylation of CpG sites of CXCL14 gene promoter in brain at […], ig for 14 days starting from 12th day of immunization by PCR analysis (reference value: 46.5 +/-6%); format: functional; settings: time 14 day

Compound	fold change (FC) (Mus musculus [1])	fold change (FC) (Mus musculus [2])	Activity (Mus musculus [3])	Activity (Mus musculus [4])	fold change (FC) (Mus musculus [5])	Activity (Mus musculus [6])	Activity (Mus musculus [7])	Activity (Mus musculus [8])	fold change (FC) (Mus musculus [9])	Activity (Mus musculus [10])
CCCCCCCCCCCCCCCCCCCCCCCCC(=O)O[C@H]1CC[C@]2(C)[C@H]3CC=C4[C@@H]5CC(C)(C)CC[C@]5(CO)CC[C@@]4(C)[C@]3(C)CC[C@H]2C1(C)C	-1.51	2	Active	Active	1.92					
CCCCCCCCc1ccc(CCC(N)(CO)CO)cc1 [FINGOLIMOD]						Active	Active	36.2%	10.7	73.6%
